Assay results taken from publication PMC8157262 (Pharmaceutics, 2021).
Like-named read-outs stand apart in the source and are kept apart here.

Legend:
[1] = cited from earlier work
[2] = system: Candida albicans-infected mice; conditions: long-term administration to Candida albicans-infected mice; cited from earlier work
in vivo = conditions: Sprague-Dawley, rat; for bioavailability: F
[3] = Sprague-Dawley, rat, in vivo
rat hepatic microsomes = conditions: for Vmax for the elimination of tofacitinib: liver microsomes, n = 3
[4] = system: rat intestinal microsomes
[5] = oral, healthy male adults; cited from earlier work
[6] = Pharmacokinetics after intravenous administration of tofacitinib and/or voriconazole to rats; conditions: Sprague-Dawley, rat, 10 mg/kg
Experimental: In all cases, the treatment was administered intravenously for 1 min via the jugular vein (total injection volume of 4 mL/kg). Blood samples (approximately 0.12 mL for single drug administration and 0.22 mL for co-administration of both drugs) were taken from the carotid artery at 0 (before the start of injection), 1 (right after injection), 5, 15, 30, 60, 120, 180, 240, 360, 480, 600 and/or 720 min after the start of injection. […] Urine samples, collected for 24 h following injection, and gastrointestinal tract (including its contents and feces) samples, collected 24 h after injection, were prepared in accordance with previously reported methods.

in vitro [7] = conditions: rat, liver microsomes
in vitro [8] = conditions: rat, intestinal microsomes
[9] = Protein binding of tofacitinib to fresh rat plasma (equilibrium dialysis); assay type: in vitro ADME; conditions: n = 5, read-out: Protein binding (bound fraction) (converted)
Experimental: Briefly, plasma was dialyzed against isotonic phosphate buffer (pH 7.4) in a 1 mL dialysis cell (Spectrum Medical Industries, Los Angeles, CA, USA).

α-glycosidase = conditions: interaction with acarbose; cited from earlier work
[10] = system: human carbonic anhydrase 1; conditions: interaction with acetazolamide; cited from earlier work
[11] = rat hepatic microsomes, 20 μM voriconazole
[12] = rat intestinal microsomes, 20 μM voriconazole
[13] = pH 7.4, with voriconazole 20 μM

Q: With `C[C@@H]1CCN(C(=O)CC#N)C[C@@H]1N(C)c1ncnc2[nH]ccc12` [tofacitinib, Tofacitinib] as the compound, how does the Volume of distribution ([1]; tofacitinib oral, healthy subjects) read?
A: Its Volume of distribution is 1.24 L/kg.

Q: And the Plasma protein binding ([1]; tofacitinib, healthy subjects)?
A: The Plasma protein binding was “approximately 40%”.

Q: What about the “Absolute oral bioavailability (F)” value ([1]; tofacitinib, humans) of the same compound?
A: The value was “approximately 74%”.

Q: What about the “Fraction processed by CYP2C19” value ([1]; tofacitinib, humans) of the same compound?
A: Its value is 20%.

Q: What about the “Fraction processed by CYP3A4” value ([1]; tofacitinib, humans) of the same compound?
A: Its value is “about 50%”.

Q: And the “Survival rate of infected mice” value [2]?
A: Its value is “significantly reduce their survival rate”.

Q: What about the bioavailability (in vivo) of the same compound?
A: Its bioavailability is 71.2%.

Q: What about the CL renal (in vivo; po, 20 mg/kg, CLR) of the same compound?
A: Its CL renal is 5.36 ± 1.35 mL/min/kg.

Q: What about the Tmax (in vivo; po, 20 mg/kg) of the same compound?
A: The Tmax was 1.46 h.

Q: What about the F [3] of the same compound?
A: Its F is 72.4%.

Q: And the “'true' fraction of the oral dose unabsorbed (Funabs)” value ([3]; po)?
A: Its value is “approximately 0.162%”.

Q: What about the “Fraction of the oral dose absorbed” value ([3]; po) of the same compound?
A: Its value is “more than 99%”.

Q: And the CLR ([3]; po, 20 mg/kg)?
A: Its CLR is 0.310 ± 0.117 mL/min/kg.

Q: And the “Vmax for the elimination of tofacitinib” value (rat hepatic microsomes; with 20 μM VCZ)?
A: Its value is 1184 ± 470 pmol/min/mg protein.

Q: What about the “Vmax for the elimination of tofacitinib” value (rat hepatic microsomes; without VCZ) of the same compound?
A: Its value is 2895 ± 319 pmol/min/mg protein.

Q: And the “CLint of tofacitinib slower in the presence of voriconazole” value (rat hepatic microsomes; [11])?
A: Its value is 65.5%.

Q: What about the “Vmax of tofacitinib elimination slower in the presence of voriconazole” value (rat hepatic microsomes; [11]) of the same compound?
A: Its value is 59.1%.

Q: And the “Vmax for the elimination of tofacitinib” value ([4]; intestinal microsomes, with 20 μM VCZ, n = 3)?
A: Its value is 212 ± 27.0 pmol/min/mg protein.

Q: And the “Vmax for the elimination of tofacitinib” value ([4]; intestinal microsomes, without VCZ, n = 3)?
A: Its value is 380 ± 86.1 pmol/min/mg protein.

Q: And the “CLint of tofacitinib slower in the presence of voriconazole” value [4, 12]?
A: Its value is 21.1%.

Q: And the “Vmax of tofacitinib elimination slower in the presence of voriconazole” value [4, 12]?
A: The value was 44.2%.

Q: And the “AUC of tofacitinib higher when co-administered with fluconazole” value [5]?
A: Its value is 79%.

Q: What about the “AUC of tofacitinib higher when combined with ketoconazole” value [5] of the same compound?
A: Its value is 103%.

Q: And the AUC ([6]; in vivo)?
A: The AUC was 12300 ng·h/mL.

Q: And the CL renal ([6]; in vivo)?
A: Its CL renal is 3.61 ± 0.829 mL/min/kg.

Q: What about the AUC ([6]; iv, AUC) of the same compound?
A: The AUC was 4630 ng·h/mL.

Q: What about the CL renal ([6]; iv, CLR) of the same compound?
A: Its CL renal is 1.44 ± 0.678 mL/min/kg.

Q: And the Vd ([6]; iv, Vss)?
A: The Vd was 1.21 ± 0.489 L/kg.

Q: And the Km (in vitro [7]; pH 7.4)?
A: The Km was 124 ± 13.7 µM.

Q: What about the microsomal CLint (in vitro [7]; pH 7.4) of the same compound?
A: The microsomal CLint was 23.3 ± 0.689 µL/min/mg.

Q: What about the Km (in vitro [7]; [13]) of the same compound?
A: The Km was 147 ± 43.4 µM.

Q: What about the microsomal CLint (in vitro [7]; [13]) of the same compound?
A: The microsomal CLint was 8.05 ± 2.01 µL/min/mg.

Q: And the Km (in vitro [8]; pH 7.4)?
A: Its Km is 43.1 ± 11.7 µM.

Q: What about the microsomal CLint (in vitro [8]; pH 7.4) of the same compound?
A: The microsomal CLint was 8.94 ± 1 µL/min/mg.

Q: And the Km (in vitro [8]; [13])?
A: The Km was 30.1 ± 3.29 µM.

Q: What about the microsomal CLint (in vitro [8]; [13]) of the same compound?
A: Its microsomal CLint is 7.05 ± 0.12 µL/min/mg.

Q: And the fraction unbound at 8 h, 5 μg/mL ([9]; pH 7.4, tofacitinib 5 μg/mL in the absence of voriconazole)?
A: Its fraction unbound at 8 h, 5 μg/mL is 0.621.

Q: What about the fraction unbound at 8 h, 5 μg/mL ([9]; pH 7.4, tofacitinib 5 μg/mL in the presence of voriconazole 5 μg/mL) of the same compound?
A: Its fraction unbound at 8 h, 5 μg/mL is 0.639.

Q: With `C[C@@H](c1ncncc1F)[C@](O)(Cn1cncn1)c1ccc(F)cc1F` [voriconazole, Voriconazole] as the compound, how does the F ([1]; human, in vivo) read?
A: The F was “over 90%”.

Q: What about the Protein binding ([1]; human, in vivo) of the same compound?
A: Its Protein binding is “approximately 58%”.

Q: What about the half-life ([1]; human, in vivo) of the same compound?
A: Its half-life is “approximately 6 h”.

Q: What about the bioavailability (in vivo) of the same compound?
A: The bioavailability was 106%.

Q: And the AUC (in vivo; po, 20 mg/kg, AUC)?
A: The AUC was 65600 ng·h/mL.

Q: What about the Cmax (in vivo; po, 20 mg/kg, Cmax) of the same compound?
A: Its Cmax is 7820 ± 1130 ng/mL.

Q: And the Tmax (in vivo; po, 20 mg/kg)?
A: The Tmax was 4.38 h.

Q: And the F [3]?
A: The F was 122%.

Q: And the “Manner of inhibition of tofacitinib metabolism by voriconazole” value (rat hepatic microsomes; Lineweaver–Burk and Dixon plots, rat hepatic microsomes)?
A: Its value is “non-competitive manner”.

Q: What about the “Manner of inhibition of tofacitinib metabolism by voriconazole” value ([4]; rat intestinal microsomes) of the same compound?
A: Its value is “non-competitive manner”.

Q: And the Ki ([4]; read-out: Apparent Ki of voriconazole for the inhibition of tofacitinib metabolism, intestinal microsomes, non-competitive model, n = 3)?
A: The Ki was 26.2 ± 8.05 µM.

Q: And the MRT ([6]; iv)?
A: The MRT was 6.67 ± 2.48 h.

Q: What about the AUC ([6]; iv, AUC) of the same compound?
A: The AUC was 31000 ng·h/mL.

Q: What about the MRT ([6]; iv, MRT) of the same compound?
A: Its MRT is 7.03 h.

Q: What about the half-life ([6]; iv, Terminal half-life) of the same compound?
A: Its half-life is 5.23 ± 1.61 h.

Q: What about the “Type of inhibition of α-glycosidase” value (α-glycosidase) of the same compound?
A: The value was “non-competitive inhibition”.

Q: What about the “Type of inhibition of human carbonic anhydrase 1” value [10] of the same compound?
A: The value was “non-competitive inhibition”.
